Test results from ChEMBL document CHEMBL4842383 (J Med Chem, 2021).

What was measured:
[1] = target: Macrophage colony-stimulating factor 1 receptor (Homo sapiens, UniProt P07333); test: Inhibition of human recombinant GST-CSF1R (residues L534 to C972) expressed in Sf9 insect cells using poly(Glu,Tyr) as substrate incubated for 20 mins by ATP Kinase Glo assay
[2] = target: T1, Aurora kinase A (Homo sapiens) (UniProt O14965); test: Inhibition of recombinant GST-AURKA (residues Ser123 to Ser401) (unknown origin) expressed in Sf9 insect cells using tetra(-LRRASLG) peptide as substrate at 1 uM incubated for 90 mins by ATP Kinase Glo assay
T1 sequence (whole entry): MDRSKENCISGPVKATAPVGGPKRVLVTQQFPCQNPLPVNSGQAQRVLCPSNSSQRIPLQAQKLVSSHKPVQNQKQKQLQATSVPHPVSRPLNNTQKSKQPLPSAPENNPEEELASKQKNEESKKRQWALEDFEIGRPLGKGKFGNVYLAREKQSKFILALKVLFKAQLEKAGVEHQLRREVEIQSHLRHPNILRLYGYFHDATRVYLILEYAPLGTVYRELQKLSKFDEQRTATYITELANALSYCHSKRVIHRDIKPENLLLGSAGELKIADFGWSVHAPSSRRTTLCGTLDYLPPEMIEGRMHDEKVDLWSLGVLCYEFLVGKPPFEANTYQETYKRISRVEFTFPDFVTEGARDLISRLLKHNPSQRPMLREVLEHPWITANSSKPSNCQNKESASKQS

Aurora kinase B = Aurora kinase B (Homo sapiens, UniProt Q96GD4); test: Inhibition of human recombinant full length GST-AURKB using tetra(-LRRASLG) peptide as substrate at 0.1 uM incubated for 20 mins by ATP Kinase Glo assay; assay type: biochemical; conditions: Sf9
Aurora kinase B, sequence (Q96GD4 whole entry): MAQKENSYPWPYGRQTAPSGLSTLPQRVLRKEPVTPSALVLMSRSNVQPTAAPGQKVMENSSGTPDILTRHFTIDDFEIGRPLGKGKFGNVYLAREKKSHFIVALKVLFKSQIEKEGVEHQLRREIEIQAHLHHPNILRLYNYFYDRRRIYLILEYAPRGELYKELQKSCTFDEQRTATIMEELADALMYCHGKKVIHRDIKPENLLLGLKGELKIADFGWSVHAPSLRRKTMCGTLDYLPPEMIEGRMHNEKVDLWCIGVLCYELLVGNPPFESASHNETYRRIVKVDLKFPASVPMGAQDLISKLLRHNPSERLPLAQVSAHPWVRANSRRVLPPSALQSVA

BaF3 = test: Antiproliferative activity against mouse BaF3 cells transfected with human ETV6-CSF1R assessed as reduction in cell viability measured after 72 hrs by MTS method; conditions: BaF3, 72 h
NFS-60 = test: Antiproliferative activity against mouse NFS-60 cells transfected with human ETV6-CSF1R assessed as reduction in cell viability measured after 72 hrs by MTS method; assay type: functional, cell-based; conditions: NFS-60, 72 h
[3] = Half life in Sprague-Dawley rat at 5 mg/kg, iv measured up to 24 hrs by LC-MS/MS analysis; assay type: ADME, organism-based; conditions: in vivo
[4] = Clearance in Sprague-Dawley rat at 5 mg/kg, iv measured up to 24 hrs by LC-MS/MS analysis; assay type: ADME, organism-based; conditions: in vivo
[5] = Volume of distribution at steady state in Sprague-Dawley rat at 5 mg/kg, iv measured up to 24 hrs by LC-MS/MS analysis; assay type: ADME, organism-based; conditions: in vivo, read-out: Vdss
[6] = Dose normalized AUC (0 to inf) in Sprague-Dawley rat at 5 mg/kg, iv measured up to 24 hrs by LC-MS/MS analysis; assay type: ADME, organism-based; conditions: in vivo
[7] = Half life in Sprague-Dawley rat at 20 to 25 mg/kg, po measured up to 24 hrs by LC-MS/MS analysis; assay type: ADME, organism-based; conditions: in vivo, dose 20-25 mg/kg
[8] = Dose normalized Cmax in Sprague-Dawley rat at 20 to 25 mg/kg, po measured up to 24 hrs by LC-MS/MS analysis; assay type: ADME, organism-based; conditions: in vivo, dose 20-25 mg/kg
[9] = Tmax in Sprague-Dawley rat at 20 to 25 mg/kg, po measured up to 24 hrs by LC-MS/MS analysis; assay type: ADME, organism-based; conditions: in vivo, dose 20-25 mg/kg
[10] = Dose normalized AUC (0 to inf) in Sprague-Dawley rat at 20 to 25 mg/kg, po measured up to 24 hrs by LC-MS/MS analysis; assay type: ADME, organism-based; conditions: in vivo, dose 20-25 mg/kg
[11] = Oral bioavailability in Sprague-Dawley rat at 20 to 25 mg/kg measured up to 24 hrs by LC-MS/MS analysis; assay type: ADME, organism-based; conditions: in vivo, dose 20-25 mg/kg
Aurora kinase A = target: T2, Aurora kinase A (Homo sapiens, UniProt O14965); test: Inhibition of recombinant GST-AURKA (residues Ser123 to Ser401) (unknown origin) expressed in Sf9 insect cells using tetra(-LRRASLG) peptide as substrate incubated for 90 mins by ATP Kinase Glo assay
T2 sequence (O14965 whole entry): T1 sequence (whole entry)

Macrophage colony-stimulating factor 1 receptor, sequence (P07333 whole entry, the tested form may be a part): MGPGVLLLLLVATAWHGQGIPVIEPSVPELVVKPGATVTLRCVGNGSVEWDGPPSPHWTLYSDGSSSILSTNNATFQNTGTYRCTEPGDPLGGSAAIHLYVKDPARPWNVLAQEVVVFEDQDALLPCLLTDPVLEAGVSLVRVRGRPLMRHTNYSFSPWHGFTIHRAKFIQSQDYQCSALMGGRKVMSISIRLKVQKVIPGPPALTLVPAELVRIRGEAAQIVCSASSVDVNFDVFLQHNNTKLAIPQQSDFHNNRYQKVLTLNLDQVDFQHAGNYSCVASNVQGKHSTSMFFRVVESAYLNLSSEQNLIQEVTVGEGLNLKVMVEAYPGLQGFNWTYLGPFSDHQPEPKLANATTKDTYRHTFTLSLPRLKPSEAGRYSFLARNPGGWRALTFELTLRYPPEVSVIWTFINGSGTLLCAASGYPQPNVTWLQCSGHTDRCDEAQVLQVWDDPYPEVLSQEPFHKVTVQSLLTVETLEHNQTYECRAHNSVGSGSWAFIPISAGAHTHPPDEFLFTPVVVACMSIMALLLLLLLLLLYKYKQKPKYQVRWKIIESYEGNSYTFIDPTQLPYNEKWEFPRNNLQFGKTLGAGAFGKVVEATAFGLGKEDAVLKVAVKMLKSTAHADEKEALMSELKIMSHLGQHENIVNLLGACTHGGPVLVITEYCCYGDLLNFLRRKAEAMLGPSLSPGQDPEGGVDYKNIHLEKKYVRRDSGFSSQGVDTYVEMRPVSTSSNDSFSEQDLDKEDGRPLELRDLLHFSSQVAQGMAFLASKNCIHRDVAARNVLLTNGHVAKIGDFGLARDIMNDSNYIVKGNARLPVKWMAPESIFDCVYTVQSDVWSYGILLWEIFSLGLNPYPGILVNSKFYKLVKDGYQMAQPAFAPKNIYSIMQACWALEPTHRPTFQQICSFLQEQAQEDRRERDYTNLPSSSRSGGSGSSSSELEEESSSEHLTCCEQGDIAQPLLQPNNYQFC

Row | SMILES | IC50 [1] [nM] | inhibition [2] [%] | inhibition (Aurora kinase B) [%] | EC50 (BaF3) [nM] | EC50 (NFS-60) [nM] | other results
1 | CN(C)c1ccc2c(Oc3ccc(NC(=O)Nc4ccccc4)cc3)ncnc2c1 | 21 | 40 | 61 | 66 | 92 | 
2 | COc1ccc(Cl)cc1NC(=O)Nc1ccc(Oc2ncnc3cc(N(C)C)ccc23)cc1 | 36 | 70 | 41 | 86 | 141 | 
3 | CN(C)c1ccc2c(Oc3ccc(NC(=O)Nc4ccc(Cl)cc4)cc3)ncnc2c1 | 164 | 70 | 50 | 18.4 | 25 | 
4 | COc1ccc2c(Oc3ccc(NC(=O)Nc4ccccc4)cc3)ncnc2c1 | 76 | 36 | 48 |  |  | 
5 | COc1ccc(CNC(=O)Nc2ccc(Oc3ncnc4cc(N(C)C)ccc34)cc2)cc1 | 12.9 | 6 | 29 | 91 | 81 | half-life [3]: 20.6 h; clearance [4]: 16.5 mL/min/kg; Vd [5]: 9 L/kg; AUCt/dose [6]: 1252 ng.hr/mL per mg/kg; half-life [7]: 6.7 h; Cmax/dose [8]: 1.7 ng/mL; Tmax [9]: 6 h; AUCt/dose [10]: 15 ng.hr/mL per mg/kg; bioavailability [11]: 1.6%
6 | CN(C)c1ccc2c(Oc3ccc(NC(=O)NCc4cccnc4)cc3)ncnc2c1 | 79 | 1 | 15 | 87 | 152 | 
7 | CC(NC(=O)Nc1ccc(Oc2ncnc3cc(N(C)C)ccc23)cc1)c1nccs1 (stereo not given) | 1.41 | 6 |  | 158 |  | 
8 | O=C(Nc1ccccc1)Nc1ccc(Oc2ncnc3ccc(N4CCCC4)cc23)cc1 | > 10 | 11 |  |  |  | 
9 | COc1ccccc1NC(=O)Nc1ccc(Oc2ncnc3cc(N(C)C)ccc23)cc1 | 30 | 24 | 53 | 116 | 144 | 
10 | COc1ccc(NC(=O)Nc2ccc(Oc3ncnc4cc(N(C)C)ccc34)cc2)cc1Cl | 11.1 | 53 | 44 | 43 | 53 | 
11 | CN(C)c1ccc2c(Oc3ccc(NC(=O)NCCc4ccccc4)cc3)ncnc2c1 | 15.4 | 35 | 35 | 82 | 162 | 
12 | CN(C)c1ccc2c(Nc3ccc(NC(=O)Nc4ccccc4)cc3)ncnc2c1 | 243 | 33 | 27 |  |  | 
13 | Cc1ccc(CNC(=O)Nc2ccc(Oc3ncnc4cc(N(C)C)ccc34)cc2)cn1 | 11 | 4 | 9 | 38 | 68 | half-life [3]: 10.5 h; clearance [4]: 5.6 mL/min/kg; Vd [5]: 1.5 L/kg; AUCt/dose [6]: 1578 ng.hr/mL per mg/kg; half-life [7]: 2.4 h; Cmax/dose [8]: 21 ng/mL; Tmax [9]: 3.2 h; AUCt/dose [10]: 164 ng.hr/mL per mg/kg; bioavailability [11]: 10.4%
14 | COc1ccc(CNC(=O)Nc2ccc(Oc3ncnc4cc(N(C)C)ccc34)cc2)cn1 | 12.7 | 2 | 18 | 87 | 67 | half-life [3]: 1.2 h; clearance [4]: 24.7 mL/min/kg; Vd [5]: 1.4 L/kg; AUCt/dose [6]: 767 ng.hr/mL per mg/kg; half-life [7]: 4.8 h; Cmax/dose [8]: 35 ng/mL; Tmax [9]: 2.3 h; AUCt/dose [10]: 236 ng.hr/mL per mg/kg; bioavailability [11]: 30.7%
15 | COc1ccc2c(Nc3ccc(NC(=O)Nc4ccccc4)cc3)ncnc2c1 | 124 | 56 | 24 |  |  | 
16 | COc1ccc2c(NCCc3cnc(NC(=O)Nc4cccc(Cl)c4)s3)ncnc2c1 | 112 |  | 89 |  |  | IC50 (Aurora kinase A): 9 nM
17 | O=C(Nc1ccccc1)Nc1ccc(Oc2ncnc3cc(N4CCCC4)ccc23)cc1 | 63 | 43 | 43 |  |  | 
18 | COc1cc2ncnc(Oc3ccc(NC(=O)Nc4ccccc4)cc3)c2cc1OC | 30 | 46 |  |  |  | 

Further lines, with some results ahead:

Row | IC50 [1] [nM] | inhibition [2] [%] | inhibition (Aurora kinase B) [%] | EC50 (BaF3) [nM] | SMILES | EC50 (NFS-60) [nM] | other results
19 | 10.5 | 71 | 82 | 20 | CN(C)c1ccc2c(Oc3ccc(NC(=O)Nc4cccc(Cl)c4)cc3)ncnc2c1 | 55 | 
20 | 19 |  |  |  | CN(C)CCCOc1ccc2c(NCCc3cnc(NC(=O)Nc4cccc(Cl)c4)s3)ncnc2c1 |  | 
21 | 16.3 | 7 | 7 | 85 | CN(C)c1ccc2c(Oc3ccc(NC(=O)NCc4ccccc4)cc3)ncnc2c1 | 58 | 
22 | 18.6 | 3 | 34 | 108 | CN(C)c1ccc2c(Oc3ccc(NC(=O)NCc4c(F)c(F)c(F)c(F)c4F)cc3)ncnc2c1 |  | 
23 | 11.6 | 46 | 79 | 65 | COc1cccc(NC(=O)Nc2ccc(Oc3ncnc4cc(N(C)C)ccc34)cc2)c1 | 108 | 
24 | 204 | 58 |  | 167 | CN(C)c1ccc2c(Oc3ccc(NC(=O)NCc4ccn(C)n4)cc3)ncnc2c1 |  | 
25 |  | 42 | 47 | 76 | COc1cc(Oc2ccnc3cc(OC)c(OC)cc23)ccc1NC(=O)NC(C)c1nccs1 (stereo not given) | 77 | 
26 | 753 | 13 | 27 |  | O=C(Nc1ccccc1)Nc1ccc(Oc2ncnc3cc(F)ccc23)cc1 |  | 
27 | 50 | 5 |  | 14.1 | CN(C)c1ccc2c(Oc3ccc(NC(=O)NCc4ccc(C#N)cc4)cc3)ncnc2c1 | 23 | 
28 | 83 | 4 |  | 133 | COc1ccc(CNC(=O)Nc2ccc(Oc3ncnc4cc(N(C)C)ccc34)cc2)cc1OC |  | 
29 | 91 | 16 | 25 | 152 | CN(C)c1ccc2c(Oc3ccc(NC(=O)NCc4ccc(C(F)(F)F)cc4)cc3)ncnc2c1 | 97 | 
30 | 64 | 35 | 60 | 45 | CN(C)c1ccc2c(Oc3ccc(NC(=O)Nc4cccc(C(F)(F)F)c4)cc3)ncnc2c1 |  | 
31 | 41 | 29 |  |  | CN(C)c1ccc2ncnc(Oc3ccc(NC(=O)Nc4ccccc4)cc3)c2c1 |  | 
32 | 16.3 | 2 | 62 | 662 | CN(C)c1ccc2c(Oc3ccc(NC(=O)NCc4ccc(S(N)(=O)=O)cc4)cc3)ncnc2c1 | 1090 | 
33 | 44 | 57 | 76 |  | CNc1ccc2c(Oc3ccc(NC(=O)Nc4ccccc4)cc3)ncnc2c1 |  | 
34 | 15.4 | 43 | 79 | 66 | CN(C)c1ccc2c(Oc3ccc(NC(=O)Nc4ccccc4Cl)cc3)ncnc2c1 | 145 | 
35 | > 10 |  | 83 |  | O=C(Nc1cccc(Cl)c1)Nc1ncc(CCNc2ncnc3cc(F)ccc23)s1 |  | IC50 (Aurora kinase A): 9 nM
36 | 64 | 46 | 37 | 49 | CN(C)c1ccc2c(Oc3ccc(NC(=O)Nc4ccc(C(F)(F)F)cc4)cc3)ncnc2c1 |  | 
37 | 58 | 47 | 74 |  | Nc1ccc2c(Oc3ccc(NC(=O)Nc4ccccc4)cc3)ncnc2c1 |  | 
38 | 24 | 2 | 19 | 318 | CN(C)c1ccc2c(Oc3ccc(NC(=O)NCc4nccs4)cc3)ncnc2c1 | 202 | 
